In patent publication US20130252930A1 (BIOMARIN PHARMACEUTICAL INC., priority 2010, published 2013):
Like-named read-outs stand apart in the source and are kept apart here.

Experiments:
[1] = target: T1, CYP17 (human testicular microsome) (Homo sapiens, UniProt P05093); experiment: CYP17 enzymatic assay (% inhibition at 10 nM), version 1 (Biological Example 5); type: biochemical; conditions: 10 nM compound, DHEA by ELISA, read-out: Biological Example No. 5: CYP17 percent inhibition at 10 nM (version 1)
T1 construct: using microsomal fraction from human testis (Celsis Cat #S00110) as the enzyme source; tissue Celsis S00110; host or cells: human testis microsomal fraction
T1 sequence (P05093 1-508): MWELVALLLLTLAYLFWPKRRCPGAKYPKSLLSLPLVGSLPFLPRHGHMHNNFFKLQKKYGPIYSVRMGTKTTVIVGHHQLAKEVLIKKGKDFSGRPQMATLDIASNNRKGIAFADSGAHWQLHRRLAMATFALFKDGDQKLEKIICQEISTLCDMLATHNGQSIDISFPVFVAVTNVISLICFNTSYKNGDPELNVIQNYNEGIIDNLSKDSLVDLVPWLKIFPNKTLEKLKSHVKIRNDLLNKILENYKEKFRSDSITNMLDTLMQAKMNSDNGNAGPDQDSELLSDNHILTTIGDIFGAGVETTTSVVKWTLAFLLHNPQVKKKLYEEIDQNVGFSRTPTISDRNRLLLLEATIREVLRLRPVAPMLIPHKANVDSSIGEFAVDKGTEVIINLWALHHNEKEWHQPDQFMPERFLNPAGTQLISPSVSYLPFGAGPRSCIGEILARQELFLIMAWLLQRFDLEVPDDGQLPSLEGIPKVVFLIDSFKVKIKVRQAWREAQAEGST
Experimental: The assays were performed in 96-well plates. Typical assays were carried out in total 100 μL volume that included test compounds at 10 nM concentration, 1× reaction buffer, 0.5 mM NADPH, 1 μM 17α-hydroxypregnenolone, and 2.5 μL of diluted human testicular microsome (Celsis. Cat #S00110). Reaction without test compound served as positive control. Reactions were allowed to incubate at 37° C. for 90 minutes with gentle shaking. The reaction was stopped by directly applying the enzymatic reaction mixture to ELISA plate for evaluation of DHEA concentration according to manufacturer's protocol (IBL America). A standard curve (OD450 vs. DHEA concentration) was generated using purified DHEA. […] Percent inhibition (inhibition %) of the compound was calculated using normalized DHEA concentration based on following formula: 100-([DHEA] of compound/[DHEA] of positive control *100).

CYP17 (H295R cells) = target: T2, CYP17 (H295R cells) (Homo sapiens, UniProt P05093); experiment: CYP17 cellular assay (IC50), testosterone in H295R cells (Biological Example 7); type: cell-based
T2 construct: endogenous in cells; host or cells: H295R cells
T2 sequence (P05093 1-508): T1 sequence (P05093 1-508)
Experimental: The assays were performed in 96-well plates. Typically H295R cells were seeded at 4.5×10^4 cells/well in 100 μL Growth Medium containing DMEM/F-12 (Gibco/Invitrogen; 11330-032), 2.5% Nu-Serum (BD Bioscience; 355100) and ITS (BD Bioscience; 354352), and cultured at 37° C., 5% CO2 for 24 hr. The next day, media were carefully removed and cells were washed twice with 200 μL 1×HBSS++. Test compounds were then added to the cells at 100, 10, 1, 0.1 nM final concentrations in 125 μL volume per well in serum-free media containing DMEM/F-12 and ITS+ Premix (BD Bioscience; 354352) with 0.1% methanol. Serum-free media with 0.1% methanol without test compound was used as control. Cells were incubated with compounds at 37° C. for additional 24 hours, and the cultured media from each compound treated well was harvested for measurement of testosterone concentration by ELISA according to manufacturer's instruction (Assay Design). Testosterone concentration of each sample was plotted vs. the concentration of the test compounds.

[2] = Human liver microsome stability assay (Biological Example 8b); conditions: liver microsomes, pH 7.4
Experimental: The reaction was started with addition of excess NADPH (5 mg/mL, 15 μL in 0.1 M potassium phosphate buffer, 1.0 mM EDTA, pH 7.4), the total volume is 45 μL (compound final concentration was 1 μM). […] 50 μL of the supernatant was transferred from each well into a 96-well sample plate containing 50 μL of ultra-pure water (Millipore) for LC-MS/MS analysis.

[3] = target: T1, CYP17 (human testicular microsome); experiment: CYP17 enzymatic assay (IC50) (Biological Example 4); type: biochemical
Experimental: The assays were performed in 96-well plates. Typical assays were carried out in total 100 μL volume that included test compounds at designated concentrations, 1× reaction buffer, 0.5 mM NADPH, 1 μM 17α-hydroxypregnenolone, and 2.5 μL of diluted human testicular microsome (Celsis. Cat #S00110). Reaction without test compound served as positive control. Reactions were allowed to incubate at 37° C. for 90 minutes with gentle shaking. The reaction was stopped by directly applying the enzymatic reaction mixture to ELISA plate for evaluation of DHEA concentration according to manufacturer's protocol (IBL America). A standard curve (OD450 vs. DHEA concentration) was generated using purified DHEA.

[4] = target: T1, CYP17 (human testicular microsome); experiment: CYP17 enzymatic assay (% inhibition at 1 nM) (Biological Example 12); type: biochemical; conditions: compound at 1 nM
Experimental: The assays were performed in 96-well plates. Typical assays were carried out in total 100 μL volume that included test compounds at 1 nM concentration, 1× reaction buffer, 0.5 mM NADPH, 1 μM 17α-hydroxypregnenolone, and 2.5 μL of human testicular microsome (Celsis. Cat #S00110). Reaction without test compound served as a positive control. Reactions were allowed to incubate at 37° C. for 90 min with gentle shaking. The reaction was stopped by directly applying the enzymatic reaction mixture to ELISA plate for evaluation of DHEA concentration according to manufacturer's protocol (IBL America). A standard curve (OD450 vs. DHEA concentration) was generated using purified DHEA. […] Percent inhibition (inhibition %) of the compound was calculated using normalized DHEA concentration based on following formula: 100−([DHEA] of compound/[DHEA] of positive control*100).

[5] = target: T3, Cyp21 enzyme (Human HEK 293-Cyp21 stable transfected cells) (Homo sapiens, UniProt P08686); experiment: CYP21-HEK293 enzymatic assay (IC50) (Biological Example 11); type: cell-based; conditions: HEK 293-Cyp21 cells
T3 construct: expressed in transfected cells
T3 sequence (P08686 1-495): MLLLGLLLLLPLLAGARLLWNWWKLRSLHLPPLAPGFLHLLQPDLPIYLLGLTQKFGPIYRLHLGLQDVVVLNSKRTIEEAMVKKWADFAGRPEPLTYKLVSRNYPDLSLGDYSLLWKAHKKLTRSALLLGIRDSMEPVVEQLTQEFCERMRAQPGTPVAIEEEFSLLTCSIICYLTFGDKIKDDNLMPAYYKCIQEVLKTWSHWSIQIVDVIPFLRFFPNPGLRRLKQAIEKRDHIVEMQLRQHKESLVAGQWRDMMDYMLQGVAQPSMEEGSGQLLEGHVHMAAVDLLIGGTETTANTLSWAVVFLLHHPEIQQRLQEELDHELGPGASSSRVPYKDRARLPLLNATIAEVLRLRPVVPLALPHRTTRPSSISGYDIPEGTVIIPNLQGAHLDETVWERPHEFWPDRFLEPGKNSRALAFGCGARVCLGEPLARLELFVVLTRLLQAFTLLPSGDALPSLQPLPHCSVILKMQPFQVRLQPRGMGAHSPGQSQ

[6] = read-out: CYP17 enzymatic assay % inhibition at 1 nM (Biological Example No. 12)
[7] = H295R cells, testosterone, read-out: CYP17 cellular assay IC50 (Biological Example No. 7)
[8] = read-out: CYP21-HEK293 enzymatic assay IC50 (Biological Example No. 11)
[9] = read-out: Biological Example No. 12: CYP17 enzymatic assay % inhibition at 1 nM
[10] = H295R cells, testosterone, read-out: Biological Example No. 7: CYP17 cellular assay IC50
[11] = human testicular microsome, read-out: Biological Example No. 4: CYP17 enzymatic assay IC50
[12] = read-out: Biological Example No. 11: CYP21-HEK293 enzymatic assay IC50

Structure (SMILES) | half-life at 1 μM [2] | inhibition at 0.001 µM [4, 9] | IC50 (CYP17 (H295R cells); [10]) | IC50 [3, 11] | IC50 [5, 12] | other results
COc1cncc(C2=CC=C3[C@@H]4CC=C5C[C@@H](O)CC[C@]5(C)[C@H]4CC[C@]23C)c1 [Compound 81, (3S,10R,13S)-17-(5-methoxypyridin-3-yl)-10,13-dimethyl-2,3,4,7,8,9,10,11,12,13-decahydro-1H-cyclopenta[a]phenanthren-3-ol] | > 50 min | – | – | – | – | inhibition at 0.01 µM [1]: > 80%; IC50 (CYP17 (H295R cells); H295R cells, testosterone by ELISA, 24 hours, read-out: Biological Example No. 7: CYP17 cellular assay IC50): < 15 nM; IC50 ([3]; human testicular microsome, DHEA by ELISA, read-out: Biological Example No. 4: CYP17 enzymatic assay IC50): < 11 nM
C[C@]12CC[C@H]3[C@@H](CCC4=CC(=O)C=C[C@@]43C)C1=CC=C2c1cccnc1 [Compound 290, (10R,13S)-10,13-dimethyl-17-(pyridin-3-yl)-6,7,8,9,10,11,12,13-octahydro-3H-cyclopenta[a]phenanthren-3-one] | 1 to 50 min | – | – | – | – | inhibition at 0.001 µM [4, 6]: > 50%; IC50 (CYP17 (H295R cells); [7]): < 15 nM; IC50 ([3]; human testicular microsome, read-out: CYP17 enzymatic assay IC50 (Biological Example No. 4)): < 11 nM; IC50 [5, 8]: 10 to 100 nM
CC1=C2CC[C@@H]3[C@H](CC[C@]4(C)C(c5cccnc5)=CC[C@@H]34)[C@@]2(C)CCC1=O [Compound 300, (10R,13S)-4,10,13-trimethyl-17-(pyridin-3-yl)-6,7,8,9,10,11,12,13,14,15-decahydro-1H-cyclopenta[a]phenanthren-3(2H)-one] | – | > 50% | < 15 nM | < 11 nM | > 1000 nM | –
CC1C[C@@H]2[C@H](CC[C@]3(C)C(c4cccnc4)=CC[C@@H]23)[C@@]2(C)CCC(=O)C=C12 (stereo partly drawn) [Compound 309, (10R,13S)-6,10,13-trimethyl-17-(pyridin-3-yl)-6,7,8,9,10,11,12,13,14,15-decahydro-1H-cyclopenta[a]phenanthren-3(2H)-one] | 1 to 50 min | – | – | – | – | inhibition at 0.001 µM [4, 6]: > 50%; IC50 (CYP17 (H295R cells); [7]): < 15 nM; IC50 [3]: < 11 nM; IC50 [5, 8]: 10 to 100 nM
CC1C[C@@H]2[C@H](CC[C@]3(C)C(c4cccnc4)=CC[C@@H]23)[C@@]2(C)C=CC(=O)C=C12 (stereo partly drawn) [Compound 318, (10R,13S)-6,10,13-trimethyl-17-(pyridin-3-yl)-6,7,8,9,10,11,12,13,14,15-decahydro-3H-cyclopenta[a]phenanthren-3-one] | 1 to 50 min | > 50% | < 15 nM | – | < 10 nM | –
C=C1C[C@@H]2[C@H](CC[C@]3(C)C(c4cncc(F)c4)=CC[C@@H]23)[C@@]2(C)C=CC(=O)C=C12 [Compound 320, (10R,13S)-17-(5-fluoropyridin-3-yl)-10,13-dimethyl-6-methylene-6,7,8,9,10,11,12,13,14,15-decahydro-3H-cyclopenta[a]phenanthren-3-one] | 1 to 50 min | – | < 15 nM | < 11 nM | > 100 nM | –
CC1CC2C3=CC=C(c4cncc(F)c4)[C@@]3(C)CCC2[C@@]2(C)CCC(=O)C=C12 (stereo partly drawn) [Compound 327, (10R,13S)-17-(5-fluoropyridin-3-yl)-6,10,13-trimethyl-6,7,8,9,10,11,12,13-octahydro-1H-cyclopenta[a]phenanthren-3(2H)-one] | 1 to 50 min | 10 to 50% | – | – | < 10 nM | IC50 (CYP17 (H295R cells)): < 15 nM
C[C@]12CCC(=O)C=C1C1CC1[C@@H]1[C@@H]2CC[C@]2(C)C(c3cncc(F)c3)=CC[C@@H]12 (stereo partly drawn) [Compound 330, (4aR,6aS)-7-(5-fluoropyridin-3-yl)-4a,6a-dimethyl-4,4a,4b,5,6,6a,9,9a,9b,9c,10,10a-dodecahydrocyclopenta[a]cyclopropa[l]phenanthren-2(3H)-one] | 1 to 50 min | > 50% | < 15 nM | < 11 nM | – | –
CC1CC2C(CC[C@]3(C)C(c4cncc(F)c4)=CCC23)[C@@]2(C)CCC(=O)C=C12 (stereo partly drawn) [Compound 342, (10R,13S)-17-(5-fluoropyridin-3-yl)-6,10,13-trimethyl-6,7,8,9,10,11,12,13,14,15-decahydro-1H-cyclopenta[a]phenanthren-3(2H)-one] | – | > 50% | < 15 nM | < 11 nM | > 100 nM | –
C[C@]12CCNC(=O)C=C1CCC1C2CC[C@]2(C)C(c3cncc(C(F)F)c3)=CCC12 (stereo partly drawn) [Compound 386, (5aR,7aS)-8-(5-(difluoromethyl)pyridin-3-yl)-5a,7a-dimethyl-3,4,5,5a,5b,6,7,7a,10,10a,11,12-dodecahydrocyclopenta[5,6]naphtho[1,2-d]azepin-2(10bH)-one] | 1 to 50 min | > 50% | < 15 nM | < 11 nM | – | –
C[C@]12CC(O)CC1CCC1C2CC[C@]2(C)C(c3cncc(F)c3)=CCC12 (stereo partly drawn) [Compound 398, (3aS,5aS)-6-(5-fluoropyridin-3-yl)-3a,5a-dimethyl-1,2,3,3a,3b,4,5,5a,8,8a,8b,9,10,10a-tetradecahydrodicyclopenta[a,f]naphthalen-2-ol] | > 50 min | 10 to 50% | < 15 nM | < 11 nM | – | –
C[C@]12CC(O)CC1CCC1C2CC[C@]2(C)C(c3cccnc3)=CCC12 (stereo partly drawn) [Compound 399, (3aS,5aS)-3a,5a-dimethyl-6-(pyridin-3-yl)-1,2,3,3a,3b,4,5,5a,8,8a,8b,9,10,10a-tetradecahydrodicyclopenta[a,f]naphthalen-2-ol] | 1 to 50 min | > 50% | < 15 nM | < 11 nM | – | –
C[C@]12CCC(=O)C=C1C=CC1C2CC[C@]2(C)C(c3cncc(F)c3)=CCC12 (stereo partly drawn) [Compound 409, (10R,13S)-17-(5-fluoropyridin-3-yl)-10,13-dimethyl-8,9,10,11,12,13,14,15-octahydro-1H-cyclopenta[a]phenanthren-3(2H)-one] | 1 to 50 min | > 50% | < 15 nM | < 11 nM | – | –
